Source: patent US12162858B2, “Quinoline derivatives as inhibitors of AXL/MER RTK and CSF1R” (QURIENT CO., LTD., priority 2018, dated 2024)

Columns and labels:
Mer (Ba/F3 cells) = target: T1, Mer (Ba/F3 cells) (Homo sapiens, UniProt Q12866); test: BaF3 viability assay, Mer-dependent cells; assay type: cell-based; details: read-out: Cellular Mer activity by Ba/F3 assay (IC50)
T1 sequence (Q12866 1-999): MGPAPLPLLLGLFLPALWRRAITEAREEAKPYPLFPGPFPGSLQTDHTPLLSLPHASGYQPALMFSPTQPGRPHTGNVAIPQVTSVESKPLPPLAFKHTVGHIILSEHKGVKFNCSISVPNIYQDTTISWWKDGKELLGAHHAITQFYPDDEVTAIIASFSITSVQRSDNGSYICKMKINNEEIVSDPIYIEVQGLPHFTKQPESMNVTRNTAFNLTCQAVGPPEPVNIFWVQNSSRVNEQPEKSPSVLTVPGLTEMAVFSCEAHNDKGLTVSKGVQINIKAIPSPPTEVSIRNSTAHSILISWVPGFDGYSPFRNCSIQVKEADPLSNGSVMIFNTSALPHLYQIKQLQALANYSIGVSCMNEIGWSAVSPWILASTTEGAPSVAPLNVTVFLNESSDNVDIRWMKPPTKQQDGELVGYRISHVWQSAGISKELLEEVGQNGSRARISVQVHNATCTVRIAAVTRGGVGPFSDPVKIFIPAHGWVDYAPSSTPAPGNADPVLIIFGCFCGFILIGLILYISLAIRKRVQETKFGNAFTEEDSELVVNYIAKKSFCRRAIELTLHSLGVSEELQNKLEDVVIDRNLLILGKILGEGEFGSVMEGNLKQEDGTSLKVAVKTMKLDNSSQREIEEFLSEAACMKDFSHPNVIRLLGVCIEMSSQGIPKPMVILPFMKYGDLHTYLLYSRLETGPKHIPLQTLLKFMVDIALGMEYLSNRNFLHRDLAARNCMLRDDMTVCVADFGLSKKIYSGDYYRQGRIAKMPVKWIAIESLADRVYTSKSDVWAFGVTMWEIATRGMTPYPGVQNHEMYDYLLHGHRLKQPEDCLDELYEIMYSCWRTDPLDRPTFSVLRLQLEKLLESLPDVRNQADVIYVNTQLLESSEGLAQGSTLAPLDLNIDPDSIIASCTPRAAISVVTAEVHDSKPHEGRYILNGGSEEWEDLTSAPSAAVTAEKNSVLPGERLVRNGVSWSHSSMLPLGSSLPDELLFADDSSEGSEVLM
Source text: (§1) In this system, IL-3-dependent Ba/F3 cells are modified to express an activated recombinant kinase (in the present case Axl, Mer and CSF1R). Following removal of IL-3, the modified cells are dependent on the activity of the recombinant kinase for survival and proliferation. Inhibition of such kinase(s) through test compounds reduces survival and proliferation of the cells.
(§2) Cell lines were maintained in growth media (GM) consisting of RPMI 1640 supplemented with 10% FBS. Cells in logarithmic-phase growth were harvested and 5,000 cells were distributed into each well of a 384-well plate in 50 μl GM. Parental cells (or experimental assays where specified) were further supplemented with 2 ng/ml IL-3 to support cell growth and survival. Fifty nanoliters of the indicated reference standard or experimental compound were added to appropriate wells (in duplicate) and the cells were cultured for 48 h at 37° C./5% CO2. Viability was determined by adding 10 μl Cell Titer Glo and measuring luminescence, which is reported as relative light units (RLU) measured in counts per second. The following calculations and formulas are used for data analysis using GraphPad Prism software: The curve fitting was made using the Dose response curves-Inhibition.

CSF1R (Ba/F3 cells) = CSF1R (Ba/F3 cells) (Homo sapiens, UniProt P07333); test: BaF3 viability assay, CSF1R-dependent cells; assay type: cell-based; details: read-out: Cellular CSF1R activity by Ba/F3 assay (IC50)
Source text: as §1, §2

Chain of CSF1R (Ba/F3 cells) (P07333 whole entry, change not shown): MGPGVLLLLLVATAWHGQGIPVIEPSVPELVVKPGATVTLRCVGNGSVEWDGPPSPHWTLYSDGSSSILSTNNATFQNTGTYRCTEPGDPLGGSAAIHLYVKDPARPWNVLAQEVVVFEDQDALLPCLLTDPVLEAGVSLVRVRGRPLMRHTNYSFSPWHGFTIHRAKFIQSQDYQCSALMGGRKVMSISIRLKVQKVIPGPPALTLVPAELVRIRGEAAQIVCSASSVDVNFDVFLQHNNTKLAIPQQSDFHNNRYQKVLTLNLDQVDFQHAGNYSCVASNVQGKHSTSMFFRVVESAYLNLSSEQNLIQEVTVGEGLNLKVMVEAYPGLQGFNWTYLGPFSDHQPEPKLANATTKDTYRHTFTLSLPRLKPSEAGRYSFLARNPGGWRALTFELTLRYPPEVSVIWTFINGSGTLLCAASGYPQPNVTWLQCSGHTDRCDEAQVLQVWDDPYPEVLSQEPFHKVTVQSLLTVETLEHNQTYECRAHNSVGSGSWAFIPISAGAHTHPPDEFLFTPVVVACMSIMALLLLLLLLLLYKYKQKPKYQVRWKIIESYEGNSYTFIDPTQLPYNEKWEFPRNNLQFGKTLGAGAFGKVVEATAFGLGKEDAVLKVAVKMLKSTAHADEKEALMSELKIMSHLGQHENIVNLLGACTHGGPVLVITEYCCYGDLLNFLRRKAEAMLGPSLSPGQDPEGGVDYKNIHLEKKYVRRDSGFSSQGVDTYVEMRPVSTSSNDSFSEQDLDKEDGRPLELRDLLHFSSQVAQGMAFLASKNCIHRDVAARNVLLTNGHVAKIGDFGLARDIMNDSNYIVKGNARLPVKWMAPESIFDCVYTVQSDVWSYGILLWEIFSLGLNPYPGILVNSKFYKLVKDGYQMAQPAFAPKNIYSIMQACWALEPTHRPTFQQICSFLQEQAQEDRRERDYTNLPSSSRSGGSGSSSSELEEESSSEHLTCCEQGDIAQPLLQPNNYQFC

Structure (SMILES): CCCn1cc(OCCC(O)CO)c(C(=O)Nc2ccc(Oc3ccnc4cc(OC)c(OC)cc34)cn2)n1 (stereo not drawn) [Compound 15]
- GI50 (Mer (Ba/F3 cells)): 1000 to 10000 nM
- GI50 (CSF1R (Ba/F3 cells)): 1000 to 10000 nM

Structure (SMILES): COc1cc2nccc(Oc3ccc(NC(=O)c4nn(CC(C)O)cc4OCC(F)(F)F)nc3)c2cc1OC (stereo not drawn) [Compound 17]
- GI50 (Mer (Ba/F3 cells)): < 1000 nM
- GI50 (CSF1R (Ba/F3 cells)): < 1000 nM

Structure (SMILES): COc1cc2nccc(Oc3ccc(NC(=O)c4nn(CCCO)cc4OCC(F)(F)F)nc3)c2cc1OC [Compound 18]
- GI50 (Mer (Ba/F3 cells)): < 1000 nM
- GI50 (CSF1R (Ba/F3 cells)): < 1000 nM

Structure (SMILES): COc1cc2nccc(Oc3ccc(NC(=O)c4nn(C[C@@H](C)O)cc4OCC(F)(F)F)nc3)c2cc1OC [Compound 29]
- GI50 (Mer (Ba/F3 cells)): < 1000 nM
- GI50 (CSF1R (Ba/F3 cells)): < 1000 nM

Structure (SMILES): COc1cc2nccc(Oc3ccc(NC(=O)c4nn(C[C@H](C)O)cc4OCC(F)(F)F)nc3)c2cc1OC [Compound 30]
- GI50 (Mer (Ba/F3 cells)): < 1000 nM
- GI50 (CSF1R (Ba/F3 cells)): < 1000 nM

Structure (SMILES): CCCn1cc(OC(C)C)c(C(=O)Nc2ccc(Oc3ccnc4cc(OC)c(OC(F)(F)F)cc34)c(F)c2)n1 [Compound 35]
- GI50 (Mer (Ba/F3 cells)): ≥ 10000 nM
- GI50 (CSF1R (Ba/F3 cells)): 1000 to 10000 nM
